Results published in article PMC9851200, “Multiparameter phenotypic screening for endogenous TFEB and TFE3 translocation identifies novel chemical series modulating lysosome function” (Autophagy, 2022).

Tests used:
Format in all cases: binding
[1] = biological target: T1, kinases (KINOMEscan panel) (Homo sapiens, UniProt Q8WTQ7); details: kinase GRK7; NEW KINOMEscan
T1 sequence (Q8WTQ7 1-553): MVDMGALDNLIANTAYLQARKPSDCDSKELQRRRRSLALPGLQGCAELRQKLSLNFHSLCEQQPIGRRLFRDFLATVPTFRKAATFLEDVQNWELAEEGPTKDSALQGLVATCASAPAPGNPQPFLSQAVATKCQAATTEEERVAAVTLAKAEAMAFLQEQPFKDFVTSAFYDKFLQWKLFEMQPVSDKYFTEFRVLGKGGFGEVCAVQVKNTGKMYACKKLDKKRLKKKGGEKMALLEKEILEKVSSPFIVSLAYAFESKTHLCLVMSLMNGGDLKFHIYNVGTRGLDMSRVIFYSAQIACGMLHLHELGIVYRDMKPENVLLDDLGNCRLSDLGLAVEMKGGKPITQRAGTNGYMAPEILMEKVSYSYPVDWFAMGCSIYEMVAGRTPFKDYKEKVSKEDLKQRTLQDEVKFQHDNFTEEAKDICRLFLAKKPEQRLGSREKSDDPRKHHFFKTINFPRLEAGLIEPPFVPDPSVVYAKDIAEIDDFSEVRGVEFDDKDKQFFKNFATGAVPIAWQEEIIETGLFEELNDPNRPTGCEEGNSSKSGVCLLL

[2] = biological target: kinases (KINOMEscan panel) (Homo sapiens, UniProt O75914); details: NEW KINOMEscan
[3] = biological target: kinases (KINOMEscan panel) (Homo sapiens, UniProt O75116); details: kinase ROCK2; NEW KINOMEscan
[4] = biological target: kinases (KINOMEscan panel) (Homo sapiens, UniProt P10721, A829P); details: NEW KINOMEscan
[5] = biological target: T2, kinases (KINOMEscan panel) (Homo sapiens, UniProt O00444); details: kinase PLK4; NEW KINOMEscan
T2 sequence (O00444 1-970): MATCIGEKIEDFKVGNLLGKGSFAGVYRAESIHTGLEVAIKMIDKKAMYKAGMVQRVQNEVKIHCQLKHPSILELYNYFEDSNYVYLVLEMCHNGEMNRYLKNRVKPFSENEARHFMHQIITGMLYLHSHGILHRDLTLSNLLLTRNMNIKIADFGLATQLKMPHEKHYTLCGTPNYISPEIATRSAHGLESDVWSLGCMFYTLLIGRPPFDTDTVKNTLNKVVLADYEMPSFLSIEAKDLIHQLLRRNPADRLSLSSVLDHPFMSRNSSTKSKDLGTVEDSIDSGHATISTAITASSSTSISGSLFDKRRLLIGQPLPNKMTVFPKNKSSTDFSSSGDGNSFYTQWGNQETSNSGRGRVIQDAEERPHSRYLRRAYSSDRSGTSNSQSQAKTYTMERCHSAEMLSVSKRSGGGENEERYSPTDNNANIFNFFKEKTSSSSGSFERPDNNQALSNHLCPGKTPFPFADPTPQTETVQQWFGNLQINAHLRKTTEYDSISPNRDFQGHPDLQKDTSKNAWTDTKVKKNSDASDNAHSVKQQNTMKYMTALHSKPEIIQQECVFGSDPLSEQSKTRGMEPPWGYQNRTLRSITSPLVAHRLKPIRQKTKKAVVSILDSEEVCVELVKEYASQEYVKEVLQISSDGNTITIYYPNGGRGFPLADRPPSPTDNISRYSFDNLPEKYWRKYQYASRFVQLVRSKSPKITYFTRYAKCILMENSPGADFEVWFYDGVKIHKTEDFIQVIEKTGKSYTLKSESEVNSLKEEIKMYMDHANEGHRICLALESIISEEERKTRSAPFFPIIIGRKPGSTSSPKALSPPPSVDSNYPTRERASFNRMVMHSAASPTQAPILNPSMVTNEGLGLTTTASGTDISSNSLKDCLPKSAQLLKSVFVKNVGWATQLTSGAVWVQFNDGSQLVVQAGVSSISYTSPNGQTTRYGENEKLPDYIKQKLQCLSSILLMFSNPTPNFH

[6] = biological target: T3, kinases (KINOMEscan panel) (Homo sapiens, UniProt Q9BRS2); details: RIOK1; NEW KINOMEscan
T3 sequence (Q9BRS2 1-568): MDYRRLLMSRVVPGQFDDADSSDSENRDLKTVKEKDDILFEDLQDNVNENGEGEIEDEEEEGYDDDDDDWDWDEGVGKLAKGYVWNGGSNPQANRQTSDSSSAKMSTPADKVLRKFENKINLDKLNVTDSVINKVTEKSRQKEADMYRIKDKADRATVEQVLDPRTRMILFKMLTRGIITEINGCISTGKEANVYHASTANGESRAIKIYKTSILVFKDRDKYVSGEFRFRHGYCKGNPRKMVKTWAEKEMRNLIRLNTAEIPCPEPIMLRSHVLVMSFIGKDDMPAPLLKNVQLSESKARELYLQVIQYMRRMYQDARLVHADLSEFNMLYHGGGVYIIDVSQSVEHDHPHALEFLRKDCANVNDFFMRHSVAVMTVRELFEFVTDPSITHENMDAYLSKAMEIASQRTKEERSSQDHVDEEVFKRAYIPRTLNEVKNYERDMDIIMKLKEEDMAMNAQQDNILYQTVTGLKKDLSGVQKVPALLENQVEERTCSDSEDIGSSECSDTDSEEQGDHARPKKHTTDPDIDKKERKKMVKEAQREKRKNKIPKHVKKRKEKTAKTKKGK

[7] = biological target: kinases (KINOMEscan panel) (Homo sapiens, UniProt Q9BQI3)
[8] = biological target: kinases (KINOMEscan panel) (Homo sapiens, UniProt P78362); details: SRPK2; NEW KINOMEscan
Chain of kinases (KINOMEscan panel) (Homo sapiens, UniProt P78362) (P78362 whole entry): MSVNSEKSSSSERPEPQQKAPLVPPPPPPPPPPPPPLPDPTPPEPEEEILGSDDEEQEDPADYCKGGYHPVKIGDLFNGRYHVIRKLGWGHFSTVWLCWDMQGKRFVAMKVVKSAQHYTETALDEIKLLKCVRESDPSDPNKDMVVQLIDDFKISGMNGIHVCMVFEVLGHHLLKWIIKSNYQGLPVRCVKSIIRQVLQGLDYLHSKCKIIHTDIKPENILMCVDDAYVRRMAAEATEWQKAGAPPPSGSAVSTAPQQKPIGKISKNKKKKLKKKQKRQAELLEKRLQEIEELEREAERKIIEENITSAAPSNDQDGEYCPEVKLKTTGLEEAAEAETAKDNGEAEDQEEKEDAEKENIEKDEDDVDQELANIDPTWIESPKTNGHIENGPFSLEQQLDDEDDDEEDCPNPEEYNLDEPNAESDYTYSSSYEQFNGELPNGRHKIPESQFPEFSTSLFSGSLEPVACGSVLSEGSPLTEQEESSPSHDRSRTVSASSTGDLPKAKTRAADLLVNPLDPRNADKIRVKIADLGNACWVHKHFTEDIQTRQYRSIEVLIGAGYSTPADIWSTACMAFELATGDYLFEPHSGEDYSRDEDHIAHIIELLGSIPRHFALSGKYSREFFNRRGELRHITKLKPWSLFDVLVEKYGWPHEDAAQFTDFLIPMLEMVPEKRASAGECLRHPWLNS

Chain of kinases (KINOMEscan panel) (Homo sapiens, UniProt P10721, A829P) (P10721 26-976 A829P): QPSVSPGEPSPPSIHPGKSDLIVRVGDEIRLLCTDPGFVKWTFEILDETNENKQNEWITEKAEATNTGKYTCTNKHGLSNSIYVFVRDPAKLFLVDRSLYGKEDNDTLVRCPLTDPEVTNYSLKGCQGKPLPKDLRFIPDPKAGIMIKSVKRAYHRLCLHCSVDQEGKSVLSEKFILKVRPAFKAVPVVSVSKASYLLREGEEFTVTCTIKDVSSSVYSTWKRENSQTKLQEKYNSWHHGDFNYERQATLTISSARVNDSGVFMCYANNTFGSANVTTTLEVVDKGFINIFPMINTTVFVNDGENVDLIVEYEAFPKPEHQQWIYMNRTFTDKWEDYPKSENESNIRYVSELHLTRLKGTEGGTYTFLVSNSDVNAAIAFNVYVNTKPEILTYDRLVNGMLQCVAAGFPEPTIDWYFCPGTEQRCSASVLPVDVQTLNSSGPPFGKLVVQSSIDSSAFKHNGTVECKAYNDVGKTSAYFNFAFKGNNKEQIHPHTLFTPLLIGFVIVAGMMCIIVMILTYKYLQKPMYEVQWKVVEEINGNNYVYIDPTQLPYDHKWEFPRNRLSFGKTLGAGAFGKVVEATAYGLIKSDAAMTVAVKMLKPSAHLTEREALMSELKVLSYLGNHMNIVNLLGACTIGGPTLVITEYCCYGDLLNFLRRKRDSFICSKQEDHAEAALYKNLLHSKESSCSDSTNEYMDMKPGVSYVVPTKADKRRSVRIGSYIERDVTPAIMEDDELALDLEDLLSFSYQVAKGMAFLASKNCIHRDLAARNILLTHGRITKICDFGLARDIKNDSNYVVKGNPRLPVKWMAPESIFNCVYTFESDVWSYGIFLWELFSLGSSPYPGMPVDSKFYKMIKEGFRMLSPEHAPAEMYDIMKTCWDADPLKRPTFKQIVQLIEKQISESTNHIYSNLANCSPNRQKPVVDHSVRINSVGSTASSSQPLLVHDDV
Chain of kinases (KINOMEscan panel) (Homo sapiens, UniProt O75914) (O75914 whole entry): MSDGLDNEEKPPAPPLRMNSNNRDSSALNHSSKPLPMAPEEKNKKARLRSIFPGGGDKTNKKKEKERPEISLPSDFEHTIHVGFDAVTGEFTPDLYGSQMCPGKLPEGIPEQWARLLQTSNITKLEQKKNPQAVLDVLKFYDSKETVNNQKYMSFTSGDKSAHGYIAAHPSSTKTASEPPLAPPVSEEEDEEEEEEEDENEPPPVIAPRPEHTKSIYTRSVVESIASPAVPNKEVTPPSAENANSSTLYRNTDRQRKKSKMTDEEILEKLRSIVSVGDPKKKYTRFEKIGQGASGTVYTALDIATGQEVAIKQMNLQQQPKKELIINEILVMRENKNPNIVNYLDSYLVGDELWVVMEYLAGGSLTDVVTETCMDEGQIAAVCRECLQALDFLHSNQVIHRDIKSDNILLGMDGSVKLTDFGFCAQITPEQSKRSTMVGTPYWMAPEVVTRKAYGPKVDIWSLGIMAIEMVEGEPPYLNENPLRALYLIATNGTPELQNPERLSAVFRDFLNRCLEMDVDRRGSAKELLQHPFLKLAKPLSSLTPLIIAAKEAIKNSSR
Chain of kinases (KINOMEscan panel) (Homo sapiens, UniProt O75116) (O75116 whole entry): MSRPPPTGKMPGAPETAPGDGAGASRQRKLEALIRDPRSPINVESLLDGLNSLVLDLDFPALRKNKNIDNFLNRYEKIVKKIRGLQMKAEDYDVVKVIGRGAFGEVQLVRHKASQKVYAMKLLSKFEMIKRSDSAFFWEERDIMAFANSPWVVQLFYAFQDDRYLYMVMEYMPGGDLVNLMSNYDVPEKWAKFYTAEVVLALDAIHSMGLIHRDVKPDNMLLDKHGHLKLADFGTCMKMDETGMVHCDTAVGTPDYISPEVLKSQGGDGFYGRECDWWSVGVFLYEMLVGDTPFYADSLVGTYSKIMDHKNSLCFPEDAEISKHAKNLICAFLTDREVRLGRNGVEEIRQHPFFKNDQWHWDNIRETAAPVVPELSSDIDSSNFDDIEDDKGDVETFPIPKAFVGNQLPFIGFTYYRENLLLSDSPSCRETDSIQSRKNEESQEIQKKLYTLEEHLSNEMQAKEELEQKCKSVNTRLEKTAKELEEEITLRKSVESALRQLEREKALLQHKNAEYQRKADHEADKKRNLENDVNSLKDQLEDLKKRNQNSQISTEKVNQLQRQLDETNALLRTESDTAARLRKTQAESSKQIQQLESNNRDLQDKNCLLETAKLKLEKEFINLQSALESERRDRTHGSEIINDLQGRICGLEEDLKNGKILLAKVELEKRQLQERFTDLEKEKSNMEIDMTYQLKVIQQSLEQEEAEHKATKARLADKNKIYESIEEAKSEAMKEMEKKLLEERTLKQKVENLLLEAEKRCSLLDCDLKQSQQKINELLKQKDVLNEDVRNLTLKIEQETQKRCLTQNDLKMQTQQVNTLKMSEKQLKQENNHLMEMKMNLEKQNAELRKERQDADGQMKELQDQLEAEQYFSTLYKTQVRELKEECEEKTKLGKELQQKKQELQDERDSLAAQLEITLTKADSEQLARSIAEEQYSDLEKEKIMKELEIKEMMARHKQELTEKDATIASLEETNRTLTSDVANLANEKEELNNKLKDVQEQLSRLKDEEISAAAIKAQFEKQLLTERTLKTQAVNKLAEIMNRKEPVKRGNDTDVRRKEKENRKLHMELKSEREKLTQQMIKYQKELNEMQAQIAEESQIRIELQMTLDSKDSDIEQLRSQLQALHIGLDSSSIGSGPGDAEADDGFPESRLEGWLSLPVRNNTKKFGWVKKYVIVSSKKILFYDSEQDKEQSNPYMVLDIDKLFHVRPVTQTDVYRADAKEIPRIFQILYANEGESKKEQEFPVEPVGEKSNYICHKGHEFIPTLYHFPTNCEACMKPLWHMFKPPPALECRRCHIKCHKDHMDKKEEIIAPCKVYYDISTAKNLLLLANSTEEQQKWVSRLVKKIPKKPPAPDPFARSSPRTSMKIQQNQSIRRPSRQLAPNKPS
Chain of kinases (KINOMEscan panel) (Homo sapiens, UniProt Q9BQI3) (Q9BQI3 whole entry): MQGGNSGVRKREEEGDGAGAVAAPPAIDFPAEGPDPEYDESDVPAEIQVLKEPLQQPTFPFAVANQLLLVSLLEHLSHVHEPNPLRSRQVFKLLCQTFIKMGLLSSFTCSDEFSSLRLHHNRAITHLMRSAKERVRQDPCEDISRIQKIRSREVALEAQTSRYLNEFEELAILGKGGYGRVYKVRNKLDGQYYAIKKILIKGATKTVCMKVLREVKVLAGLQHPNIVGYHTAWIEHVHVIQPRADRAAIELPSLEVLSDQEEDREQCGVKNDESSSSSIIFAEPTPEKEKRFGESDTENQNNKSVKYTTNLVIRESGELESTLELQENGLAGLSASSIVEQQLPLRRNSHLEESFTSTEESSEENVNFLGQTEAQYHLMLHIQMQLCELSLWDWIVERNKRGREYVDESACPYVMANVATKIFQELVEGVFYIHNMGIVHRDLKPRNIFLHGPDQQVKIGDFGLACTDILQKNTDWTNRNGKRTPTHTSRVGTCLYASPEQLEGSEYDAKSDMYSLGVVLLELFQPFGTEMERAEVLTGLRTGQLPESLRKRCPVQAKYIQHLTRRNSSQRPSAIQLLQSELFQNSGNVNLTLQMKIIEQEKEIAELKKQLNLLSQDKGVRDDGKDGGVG

Compound | KINOMEscan GRK7 [1] | KINOMEscan PAK3 [2] | KINOMEscan ROCK2 [3] | KINOMEscan KIT(A829P) [4] | KINOMEscan PLK4 [5] | KINOMEscan RIOK1 [6] | KINOMEscan ElF2AK2/EIF2AK1 [7] | KINOMEscan SRPK2 [8]
Cc1cccc(-c2nc(Nc3ccc4nn(C)cc4c3)c3ccccc3n2)n1 [NK167] | 0 | 12 | 0 | 0 | 0 | 1 | 0 | 0
Cc1cccc(-c2nc(N(C)c3ccc4ncsc4c3)c3ccccc3n2)n1 [NK-161] | 5 | 17 | 0 | 19 | 3 | 0 | 1 | 0
